Assay results as given in patent US20240398822A1, “METHODS AND COMPOSITIONS FOR TREATING AND MANAGING ALZHEIMER'S DISEASE” (Pharmatrophix, Inc., priority 2021, published 2024).
Entries after “also recorded” stand apart in the source; their conditions may differ.

Experiments:
[1] = Drug substance stability on storage and under accelerated/ICH stress conditions; assay type: physicochemical
Experimental: Preparation of the clinical dosage form consists of a dry fill of the drug substance into gelatin capsules with no excipients. For the Phase II study, capsules with the salt of Formula (II)(200 mg or 400 mg, free base weight) are machine-filled and packaged in blister strips with aluminum foil backing, which are stored in cardboard boxes. Matching placebo capsules are also available in the same packaging.

[2] = Stability study of capsules filled with 200 mg in blister strips; assay type: physicochemical; settings: 200 mg (free base weight) capsules in PVC-PE-PVdC/Alu, ambient 15-25° C./20-60% RH
[3] = test system: patients with mild to moderate Alzheimer's disease; test: Phase IIa safety and tolerability (adverse events, vital signs, ECG, MRI, laboratory); assay type: in vivo, human; settings: for subjects who discontinued the phase 2a trial due to AEs or SAEs: of 16 subjects in total; for course of the increase in eosinophil level: also where treatment was continued; for overall safety and tolerability: phase IIa
Source text: Safety monitoring included the full extent of phase 2 clinical and laboratory testing.
For all safety evaluations, only an overall ‘Safety’ population is described. This includes all patients who received at least one dose of medication and consider all patients according to the treatment they actually receive. Additionally, a PK population will be described for only patients receiving active study IMP.

[4] = test system: patients with mild to moderate Alzheimer's disease; test: Phase IIa structural MRI (regions of interest and voxel-based whole brain analysis); assay type: in vivo, human
Experimental: Volumetric MRI is conduction at the first and final visits. Volumetric analyses of the whole brain, hippocampus and other regions of interest are conducted. Measures of regional volumes as determined by MRI are regarded as standard measures of brain degeneration that are known to occur in AD. Volumes of the lateral ventricles are also assessed. Increasing ventricular volume is a marker for a diffuse increase in brain atrophy. […] The following Regions of interest were investigated in the ITT population: MRI Volume of the lateral ventricles in mm3—longitudinal stream change, MRI Average volume of the hippocampus in mm3—longitudinal stream change, MRI Average Volume of the entorhinal cortex in mm3—longitudinal stream change, MRI Total brain volume in mm3 change. Baseline and final Visit MRI scan were used to measure interval changes in volumes. Various cortical regions such as the Cingulate cortex were also assessed. […] The identified brain regions are similar in distribution to those having been previously identified to be particularly vulnerable to degeneration in AD.
For this analysis, the drug treatment group contains subject treated with either 200 or 400 mg doses. […] FIGS. 46A-46C show group x time interaction patterns using T1-weighted structural MRI. Contrast estimate plots show the magnitude and direction of the interaction effects observed in the flexible factorial GLM. […] Therefore, if the actual observed ratio of t-values is close to equivalent in the input map at a given p and k threshold, the MCS ratio and p-value will tend to support the null hypothesis of no drug effect. […] Increased thickness is similar to increased volume and means less degeneration. Here increased gyrification means increased atrophy.

[5] = test system: subjects in SAD and MAD studies; test: Phase 1 SAD/MAD safety; assay type: in vivo
Source text: The phase 1 study was placebo controlled and double blinded and included 52 subjects in SAD studies and 20 subjects in MAD studies.

[6] = 200 mg bid (N = 78), 26 weeks, safety population
[7] = 200 mg bid (N = 78), 26 weeks, safety population, listed as LM11A
[8] = 200 mg bid (N = 78), 26 weeks, safety population, listed as LM11A-31
[9] = 400 mg bid (N = 83), 26 weeks, safety population
[10] = 400 mg bid (N = 83), 26 weeks, safety population, listed as LM11A
[11] = 400 mg bid (N = 83), 26 weeks, safety population, listed as LM11A-31

## CC[C@H](C)[C@H](N)C(=O)NCCN1CCOCC1 [LM11A-31-BHS, Tris[(2S,3S)-2-amino-3-methyl-N-(2-morpholinoethyl)pentanamide] tetra(monohydrogensulfate), monosulfate]
[1]; GMP lots
  impurities following storage at ICH stress conditions: no impurities above the LOD
[1]; Phase I drug substance lot, six months accelerated conditions, or 48 months at 25° C./60% RH
  changes related to assay or impurities: no significant changes
[1]; drug substance
  stability under accelerated temperature and humidity conditions: very good stability
[1]; through 18 months at −20° C., 5° C., 25° C./60% RH or 40° C./75% RH, other than moisture content
  changes in the drug substance on storage: no significant changes
[2]
  drug stability in capsules: good drug stability
[3]; 200 mg bd, safety population
  patients discontinued because of AEs: 2 patients
  patients discontinued because of serious AE: 0 patients
[3]; [6]
  AEs Leading To Discontinuation of Study IMP, % of patients: 6.4%
  AEs Leading To Discontinuation of Study IMP, freq (events): 5
  AEs Leading To Discontinuation of Study IMP, n (patients): 5
  Adverse events, Drug Relationship: Not Related, % of patients: 52.6%
  Adverse events, Drug Relationship: Not Related, freq (events): 85
  Adverse events, Drug Relationship: Not Related, n (patients): 41
  Adverse events, Drug Relationship: Related, freq (events): 15
  Adverse events, Drug Relationship: Related, n (patients): 12
  Adverse events, Intensity: Mild, freq (events): 86
  Adverse events, Intensity: Mild, n (patients): 40
  Adverse events, Intensity: Moderate, freq (events): 12
  Adverse events, Intensity: Moderate, n (patients): 11
  Adverse events, Intensity: Severe, freq (events): 2
  Adverse events, Intensity: Severe, n (patients): 2
  All Adverse Events, % of patients: 60.3%
  All Adverse Events, freq (events): 109
  All Adverse Events, n (patients): 47
  Serious AEs, % of patients: 2.6%
  Serious AEs, freq (events): 2
  Serious AEs, n (patients): 2
  Treatment Emergent Adverse Events (TEAEs), % of patients: 59.0%
  Treatment Emergent Adverse Events (TEAEs), freq (events): 100
  Treatment Emergent Adverse Events (TEAEs), n (patients): 46
[3]; 200 mg bid (N = 78), 26 weeks, safety population, listed as LM1 1A-31
  Adverse events, Intensity: Severe, % of patients: 6%
[3]; [7]
  Adverse events, Drug Relationship: Related, % of patients: 15.4%
  Adverse events, Intensity: Moderate, % of patients: 14.1%
  Adverse events, Intensity: Severe, % of patients: 2.6%
[3]; [8]
  Adverse events, Drug Relationship: Related, % of patients: 15%
  Adverse events, Intensity: Moderate, % of patients: 14%
  Adverse events, Intensity: Severe, % of patients: 3%
[3]; 200 mg bid group (N = 78)
  Pre-Treatment Signs and Symptoms (PTSS), % of patients: 10.3%
  Pre-Treatment Signs and Symptoms (PTSS), freq (events): 9
  Pre-Treatment Signs and Symptoms (PTSS), n (patients): 8
[3]; 200 mg group
  share of the 10 severe TEAEs: 20%
  subjects with GI side effects (diarrhea in most cases): approximately 8%
  subjects who discontinued the phase 2a trial due to AEs or SAEs: 2 subjects
[3]; 400 mg bd, safety population
  patients discontinued because of AEs: 8 patients
  patients discontinued because of serious AE: 3 patients
[3]; [9]
  AEs Leading To Discontinuation of Study IMP, % of patients: 18.1%
  AEs Leading To Discontinuation of Study IMP, freq (events): 20
  AEs Leading To Discontinuation of Study IMP, n (patients): 15
  Adverse events, Drug Relationship: Not Related, % of patients: 57.8%
  Adverse events, Drug Relationship: Not Related, freq (events): 150
  Adverse events, Drug Relationship: Not Related, n (patients): 48
  Adverse events, Drug Relationship: Related, freq (events): 23
  Adverse events, Drug Relationship: Related, n (patients): 13
  Adverse events, Intensity: Mild, freq (events): 119
  Adverse events, Intensity: Mild, n (patients): 46
  Adverse events, Intensity: Moderate, freq (events): 49
  Adverse events, Intensity: Moderate, n (patients): 24
  Adverse events, Intensity: Severe, freq (events): 5
  Adverse events, Intensity: Severe, n (patients): 5
  All Adverse Events, % of patients: 66.3%
  All Adverse Events, freq (events): 185
  All Adverse Events, n (patients): 55
  Serious AEs, % of patients: 8.4%
  Serious AEs, freq (events): 7
  Serious AEs, n (patients): 7
  Treatment Emergent Adverse Events (TEAEs), % of patients: 65.1%
  Treatment Emergent Adverse Events (TEAEs), freq (events): 173
  Treatment Emergent Adverse Events (TEAEs), n (patients): 54
[3]; [10]
  Adverse events, Drug Relationship: Related, % of patients: 15.7%
  Adverse events, Intensity: Moderate, % of patients: 28.9%
  Adverse events, Intensity: Severe, % of patients: 6.0%
[3]; [11]
  Adverse events, Drug Relationship: Related, % of patients: 15%
  Adverse events, Intensity: Moderate, % of patients: 29%
[3]; 400 mg bid group (N = 83)
  Pre-Treatment Signs and Symptoms (PTSS), % of patients: 9.6%
  Pre-Treatment Signs and Symptoms (PTSS), freq (events): 12
  Pre-Treatment Signs and Symptoms (PTSS), n (patients): 8
[3]; 400 mg group
  share of the 10 severe TEAEs: 50%
  subjects with GI side effects (diarrhea in most cases): approximately 35%
  subjects who discontinued the phase 2a trial due to AEs or SAEs: 11 subjects
[3]; 200 and 400 mg groups together
  subjects receiving treatment with eosinophilia reported as an adverse event: 10 subjects
[3]; AEs otherwise similar between placebo and drug groups
  adverse events, drug groups compared with placebo: higher rates in the drug group of nasopharyngitis, GI symptoms including diarrhea and transient, asymptomatic blood eosinophilia
[3]
  course of the increase in eosinophil level: declined to normal levels
[3]; listed as salt of Formula (II)
  course of the increase in eosinophil level: transient
[3]; any group, 26 weeks
  life-threatening (Grade 4) adverse events: no life-threatening (Grade 4) adverse events
[3]; during the visits
  heart rate and body temperature: no clinically significant changes
[3]; for some events statistically significant
  rate of several adverse events, 400 mg versus 200 mg: higher for the 400 mg group
[3]; in vivo
  MRI-based safety analysis: no drug related adverse outcomes including hemorrhage or edema; also recorded: no events that raised any concern about the drug safety
  safety laboratory and urine analysis: did not show any patterns of concern
[3]; 26 weeks
  overall safety and tolerability: no results raised any concerns about the safety
[3]; 26 weeks, listed as salt of Formula (II)
  overall safety and tolerability: no serious adverse events occurred that raised concerns about the tolerability of the drug
[3]; safety population
  12-lead ECG: no relevant changes; also recorded: No significant changes
  blood pressure: no relevant changes; also recorded: No significant changes
  vital signs: no relevant changes; also recorded: No significant changes
[3]; treatment group
  highest eosinophil level reached: ≤ 5000 per μl
[3]; verum group
  subjects with eosinophil counts transiently above 500 per μl: 73 subjects
[3]; week 4
  subjects with increased eosinophil value considered clinically significant: 11 subjects
[4]; anterior cingulate region area 33 prime
  cortical thickness and gyrification: drug effect on improving cortical thickness or decreasing gyrification
[4]; combined drug group, 6-month period, p=0.006
  hippocampal (HC) volume, sMRI: significant increase in HC volume
[4]; drug group, humans
  volume of the dentate gyrus: promotes increased volume of the dentate gyrus; also recorded: significant increase in the volume of the dentate gyrus
[4]; flexible factorial GLM, p<0.05 and cluster size >100
  voxel-wise T1-weighted structural MRI, loss of volume, dose analysis: significant effect at both the 200 and 400 mg doses in slowing loss of volume
[4]; treatment period
  volume loss in voxel-based whole brain MRI, drug versus placebo: slow volume loss in brain regions known to be particularly vulnerable to degeneration in AD
[4]; younger <72 years, older >=72 years
  voxel-wise structural MRI volume loss, age analysis: significant drug effect in both age groups
[5]; in vivo
  deaths, SAEs, severe TEAEs, discontinuations because of an AE: no deaths, SAEs, severe TEAEs, and no subjects were discontinued because of an AE
  intensity of TEAEs: All TEAEs were mild
  laboratory results, physical examination, vital signs, ECG, C-SSRS: No clinically significant laboratory results, physical examination findings, vital signs, ECG findings, or positive scores
[5]; multiple doses
  subjects who experienced TEAEs: 7 of 16
  total TEAEs: 8
[5]; multiple doses, remaining 2 possibly (flatulence) or remotely (nocturia) related
  TEAEs considered unrelated to study drug: 6
[5]; single dose
  subjects who experienced a TEAE: 1 of 40
[5]; single dose, postural dizziness, possibly related
  total TEAEs: 1
[5]; single doses of 100, 300, 600 and 900 mg free base, multiple doses of 300 BID and 600 mg free base QD
  safety and tolerability: generally safe and well tolerated
